This is an account of results in article PMC10582325 (Frontiers in Pharmacology, 2023).

Test in all cases: Direct CYP inhibition in human liver microsomes with marker probe substrates
Data set [1] concerns the target T1, CYP2B6 (Homo sapiens, UniProt P20813).
T1 sequence (P20813 1-491): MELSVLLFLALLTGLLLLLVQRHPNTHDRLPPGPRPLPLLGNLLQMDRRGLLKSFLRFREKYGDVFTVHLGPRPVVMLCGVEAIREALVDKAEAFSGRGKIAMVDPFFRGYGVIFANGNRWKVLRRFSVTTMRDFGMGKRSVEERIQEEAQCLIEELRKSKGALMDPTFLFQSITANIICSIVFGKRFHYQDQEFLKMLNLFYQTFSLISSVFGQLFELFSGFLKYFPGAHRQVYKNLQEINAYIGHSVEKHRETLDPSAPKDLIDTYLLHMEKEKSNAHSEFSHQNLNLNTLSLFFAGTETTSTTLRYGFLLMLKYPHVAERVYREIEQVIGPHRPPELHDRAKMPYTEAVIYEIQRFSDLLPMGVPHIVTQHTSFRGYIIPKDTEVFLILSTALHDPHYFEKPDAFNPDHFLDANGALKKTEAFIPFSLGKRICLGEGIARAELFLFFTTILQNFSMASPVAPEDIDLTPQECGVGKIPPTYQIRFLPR
It counts as in vitro ADME. The following applies: HLM, CYP2B6 probe substrate. On the procedure:
(§1) The direct inhibition potential of TBI-166 against P450 was determined using the human marker probe reactions for P450 enzymes in human liver microsomes. Briefly, substrate concentrations in the incubation mixture were selected to be around their Km. Eight different concentrations of TBI-166 (from 0.05 to 10 μM) were incubated in human liver microsomes respectively. Incubations were carried out at 37°C in a shaking water bath. The incubation mixtures contained HLM (0.5 mg/mL), probe substrates in the presence or absence of TBI-166 in PBS (100 mM, containing MgCl2 3 mM, pH 7.4). The reactions were initiated by adding NADPH (1 mM) after preincubated the above mixtures at 37°C for 5 min. Positive controls without TBI-166 were included simultaneously. Stock solutions of the test drugs were prepared in acetonitrile. All measurements were performed in triplicate. […] Protein was removed by centrifugation at 4,000 g for 20 min and analyzed by LC-MS/MS ([Li Z. et al., 2019]).
(§2) Metabolites of probe substrates were separated using a Gemini C18 column (2.1 × 50 mm, i. d, […] particle size; United States). […] The analytes and internal standard were detected by positive ion spray in the multiple-reaction-monitoring modes (MRM).
(§3) IC50 values were calculated using nonlinear regression analysis with GraphPad Prism 7 (GraphPad Software Inc., San Diego, CA). […] All data are expressed as the mean ± SD. […]

Data set [2] addresses T2, CYP2J2 (Homo sapiens, UniProt P51589).
T2 sequence (P51589 1-502): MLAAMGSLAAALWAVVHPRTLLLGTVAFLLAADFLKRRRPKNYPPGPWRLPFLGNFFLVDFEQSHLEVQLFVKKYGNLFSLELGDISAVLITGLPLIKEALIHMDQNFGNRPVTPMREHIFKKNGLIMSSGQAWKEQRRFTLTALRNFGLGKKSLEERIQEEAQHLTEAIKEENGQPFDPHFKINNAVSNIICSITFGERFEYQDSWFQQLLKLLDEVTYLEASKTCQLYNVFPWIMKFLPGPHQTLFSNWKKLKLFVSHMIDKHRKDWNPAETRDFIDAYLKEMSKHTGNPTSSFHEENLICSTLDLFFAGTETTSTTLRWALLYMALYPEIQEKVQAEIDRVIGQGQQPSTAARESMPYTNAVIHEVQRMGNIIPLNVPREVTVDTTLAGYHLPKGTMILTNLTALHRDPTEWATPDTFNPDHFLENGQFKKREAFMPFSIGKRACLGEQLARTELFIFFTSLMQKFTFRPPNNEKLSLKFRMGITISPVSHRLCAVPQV
It counts as in vitro ADME. The following applies: HLM, CYP2J2 probe substrate. Here is the method:
as §1, §2, §3

Data set [3] addresses T3, CYP1A2 (Homo sapiens, UniProt P05177).
T3 sequence (P05177 1-516): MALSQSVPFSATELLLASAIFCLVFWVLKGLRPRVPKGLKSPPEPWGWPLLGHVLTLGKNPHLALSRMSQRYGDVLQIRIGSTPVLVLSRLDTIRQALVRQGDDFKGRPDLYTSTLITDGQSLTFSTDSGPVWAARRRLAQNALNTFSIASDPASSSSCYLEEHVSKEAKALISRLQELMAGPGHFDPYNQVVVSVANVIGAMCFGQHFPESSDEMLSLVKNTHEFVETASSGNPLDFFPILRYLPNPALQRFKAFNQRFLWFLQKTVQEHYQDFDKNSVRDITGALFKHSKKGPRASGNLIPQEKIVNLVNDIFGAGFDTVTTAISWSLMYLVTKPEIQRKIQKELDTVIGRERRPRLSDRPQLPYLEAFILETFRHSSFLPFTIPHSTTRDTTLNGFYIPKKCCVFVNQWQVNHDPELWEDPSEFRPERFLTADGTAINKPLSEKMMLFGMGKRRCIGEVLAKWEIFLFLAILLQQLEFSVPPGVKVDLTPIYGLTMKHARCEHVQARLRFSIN
The following applies: read-out: Inhibition, IC50; HLM, CYP1A2 probe substrate.

Take `COc1ncccc1Nc1cc2nc3ccccc3n(-c3ccc(OC(F)(F)F)cc3)c-2cc1=NC1CCC(OC)CC1` (stereo not drawn) [TBI-166, Pyrifazimine]: the results for the 50% inhibitory concentration (IC50) in data set [1], in data set [2] and in data set [3] were 4.35 µM, over 50 µM and 0.55 µM, respectively.
